PubChem BioAssay AID2060885 (Molecular Pharmacology Branch, DTP, NCI, 2025)

Test system: NCI-H23 complex spheroids with HUVEC/MSC, viability
Experiment: Anticancer human tumor NCI-H23 cell line growth inhibition [RAS];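 note: spheroids exposed to compound for 7 days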;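 for viability, T/C: 100% = DMSO vehicle control viability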
Details: for IC50: curve of first compound; for viability, T/C: stronger effect = lower value
Method in brief: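 Agents were tested in combination matrices in half-log decrements from a top concentration at or near clinical Cmax (10 microM if undetermined). Targets were multi-cell spheroids of tumour lines plus HUVEC and MSC stromal cells.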

With `CC(=O)OC12COC1CC(O)C1(C)C(=O)C(O)C3=C(C)C(OC(=O)C(O)C(NC(=O)OC(C)(C)C)c4ccccc4)CC(O)(C(OC(=O)c4ccccc4)C21)C3(C)C` (configuration not stated) + C#Cc1c(F)ccc2cc(O)cc(-c3ncc4c(N5CC6CCC(C5)N6)nc(OCC56CCCN5CC(F)C6)nc4c3F)c12 the IC50 (second compound 0.0316 µM) was < 31.6 nM, the IC50 (second compound 0.1 µM) was < 31.6 nM and the IC50 (second compound 0.316 µM) was < 31.6 nM. For the same compound, the IC50 (second compound 1 µM) was < 31.6 nM, the IC50 (second compound 3.16 µM) was < 31.6 nM and the IC50 (second compound 10 µM) was < 31.6 nM. It also gave a viability, T/C (second compound 0.0316 µM, first compound 0.0316 µM) of 30.7%, a viability, T/C (second compound 0.0316 µM, first compound 0.1 µM) of 41.2% and a viability, T/C (second compound 0.0316 µM, first compound 0.316 µM) of 37.2%. For the same compound, the viability, T/C (second compound 0.0316 µM, first compound 1 µM) was 32.2%, the viability, T/C (second compound 0.0316 µM, first compound 3.16 µM) was 47.1% and the viability, T/C (second compound 0.0316 µM, first compound 10 µM) was 62.8%. For the same compound, the viability, T/C (second compound 0.1 µM, first compound 0.0316 µM) was 27.8%, the viability, T/C (second compound 0.1 µM, first compound 0.1 µM) was 36.6% and the viability, T/C (second compound 0.1 µM, first compound 0.316 µM) was 34.6%. For the same compound, the viability, T/C (second compound 0.1 µM, first compound 1 µM) was 30.9%, the viability, T/C (second compound 0.1 µM, first compound 3.16 µM) was 56.1% and the viability, T/C (second compound 0.1 µM, first compound 10 µM) was 71.2%. The viability, T/C (second compound 0.316 µM, first compound 0.0316 µM) was 34.1%, the viability, T/C (second compound 0.316 µM, first compound 0.1 µM) was 35.6% and the viability, T/C (second compound 0.316 µM, first compound 0.316 µM) was 31.3%. For the same compound, the viability, T/C (second compound 0.316 µM, first compound 1 µM) was 32%, the viability, T/C (second compound 0.316 µM, first compound 3.16 µM) was 46.1% and the viability, T/C (second compound 0.316 µM, first compound 10 µM) was 57.2%. For the same compound, the viability, T/C (second compound 1 µM, first compound 0.0316 µM) was 27.3%, the viability, T/C (second compound 1 µM, first compound 0.1 µM) was 30.5% and the viability, T/C (second compound 1 µM, first compound 0.316 µM) was 32%. The viability, T/C (second compound 1 µM, first compound 1 µM) was 23.6%, the viability, T/C (second compound 1 µM, first compound 3.16 µM) was 36.4% and the viability, T/C (second compound 1 µM, first compound 10 µM) was 46.6%. It also gave a viability, T/C (second compound 3.16 µM, first compound 0.0316 µM) of 20.1%, a viability, T/C (second compound 3.16 µM, first compound 0.1 µM) of 21.6% and a viability, T/C (second compound 3.16 µM, first compound 0.316 µM) of 21.2%. For the same compound, the viability, T/C (second compound 3.16 µM, first compound 1 µM) was 23.6%, the viability, T/C (second compound 3.16 µM, first compound 3.16 µM) was 25.6% and the viability, T/C (second compound 3.16 µM, first compound 10 µM) was 39%. The viability, T/C (second compound 10 µM, first compound 0.0316 µM) was 17.9%, the viability, T/C (second compound 10 µM, first compound 0.1 µM) was 20.7% and the viability, T/C (second compound 10 µM, first compound 0.316 µM) was 16.5%. The viability, T/C (second compound 10 µM, first compound 1 µM) was 19.1%, the viability, T/C (second compound 10 µM, first compound 3.16 µM) was 23.1% and the viability, T/C (second compound 10 µM, first compound 10 µM) was 30.5%.
